Test results: US9714239B2, “N-phenyl-lactam derivatives capable of stimulating neurogenesis and their use in the treatment of neurological disorders” (Hoffmann-La Roche Inc., priority 2014, dated 2017)

These compounds were tested on human embryonic stem cell derived neural stem cells (NSCs) (assay: Neurogenesis assay: neural stem cell proliferation assay). Details: 96 h, compound concentration at which 150% activity of control (100%) is reached, increase in cells based on ATP levels (CellTiterGlo), 4 days incubation, dose response 8 μM to 8 nM.
Procedure: Neural Stem Cell Proliferation Assay
Neurogenic properties of small molecules are determined based on the proliferation of human embryonic stem cell derived neural stem cells (NSCs) which were derived via a dual smad inhibition as previously described (Chambers, S. M., et al., Highly efficient neural conversion of human ES and iPS cells by dual inhibition of SMAD signaling, Nature biotechnology, 2009 27(3): p. 275-80.).
Compounds response is measured by the increase in cells based on ATP levels (Promega:CellTiterGlo®) after an incubation period of 4 days. NSCs are thawed and expanded over 3 passages. On the 14th day, NSCs are seeded in Polyornithin/Laminin coated 384 well plates at a cell density of 21,000 cells/cm^2 in a media volume of 38 μl.
4 hours after cell seeding, compound solutions are added at a volume of 2 μl. Stock solutions of the compounds (water, 5% DMSO) are diluted to obtain a dose response (11 points, dilution factor is 2), ranging from 8 μM to 8 nM. Controls are run to consistently determine the neurogenic properties of the cells:
Negative (neutral) control is cell culture Media (final DMSO concentration: 0.25%).
1. cell culture Media+100 ng/ml FGF2 (final DMSO concentration: 0.1%)
2. cell culture Media+20 ng/ml EGF (final DMSO concentration: 0.1%)
3. cell culture Media+100 ng/ml Wnt3a (final DMSO concentration: 0.1%)
After 4 days incubation at 37° C., 5% CO2, the amount of ATP per well is quantified. The ATP concentration is proportional to the cell number. ATP is quantified by using the Promega CellTiterGlo® kit. The CellTiterGlo® reagents contain a cell lysis buffer, a thermo stable luciferase (UltraGlo™ recombinant luciferase), magnesium and luciferin. Luciferin reacts with ATP producing oxyluciferin, AMP and light. The luminescence signal is proportional to the ATP content.
The value of negative (neutral) control is determined for each assay plate by taking the average of 16 negative control wells. The neurogenic compound response is calculated for each compound as (compound/Negative Control)*100. The values of EC150 from the dose response curve are determined for each test compound. The EC150 is the compound concentration at which 150% activity of control (100%) is reached.
In the case of `COc1cccc(CN2CCN(c3ccc(-c4cnco4)c(OC)c3)C2=O)c1` [Example 68, 1-[3-Methoxy-4-(1,3-oxazol-5-yl)phenyl]-3-[(3-methoxyphenyl)methyl]imidazolidin-2-one], the EC (150% of control) is reported as 0.316 µM.
With `COc1cc(N2CCN(Cc3ccccc3Cl)C2=O)ccc1-c1cnco1` [Example 69, 1-[(2-Chlorophenyl)methyl]-3-[3-methoxy-4-(1,3-oxazol-5-yl)phenyl]imidazolidin-2-one] the EC (150% of control) was 2.24 µM.
`COc1cccc(C2CCN(c3ccc(-c4ccncc4)c(OC)c3)C2=O)c1` (centres unmarked) [Example 70, 3-(3-Methoxyphenyl)-1-(3-methoxy-4-pyridin-4-ylphenyl)pyrrolidin-2-one] gave an EC (150% of control) of 0.0613 µM.
Compound `COc1cccc(C2CCN(c3ccc(-c4ccncc4)cc3)C2=O)c1` (centres unmarked) [Example 71, 3-(3-Methoxyphenyl)-1-(4-pyridin-4-ylphenyl)pyrrolidin-2-one] has an EC (150% of control) of 0.0155 µM.
Work on `O=C1N(Cc2cccc(F)c2)CCN1c1ccc(-c2cnco2)cc1` [Example 72, 1-[(3-Fluorophenyl)methyl]-3-[4-(1,3-oxazol-5-yl)phenyl]imidazolidin-2-one] yielded an EC (150% of control) of 1.07 µM.
`O=C1N(Cc2ccccc2F)CCN1c1ccc(-c2cnco2)cc1` [Example 73, 1-[(2-Fluorophenyl)methyl]-3-[4-(1,3-oxazol-5-yl)phenyl]imidazolidin-2-one] gave an EC (150% of control) of 1.49 µM.
`COc1cc(N2CCN(Cc3ccccc3F)C2=O)ccc1-c1cnco1` [Example 74, 1-[(2-Fluorophenyl)methyl]-3-[3-methoxy-4-(1,3-oxazol-5-yl)phenyl]imidazolidin-2-one] gave an EC (150% of control) of 2.7 µM.
`COc1cc(N2CCN(Cc3cccc(F)c3)C2=O)ccc1-c1cnco1` [Example 75, 1-[(3-Fluorophenyl)methyl]-3-[3-methoxy-4-(1,3-oxazol-5-yl)phenyl]imidazolidin-2-one] gave an EC (150% of control) of 0.597 µM.
